Measured values: patent publication US10899753B2, “Inhibiting agents for Bruton's tyrosine kinase” (BIOGEN MA INC., priority 2018, dated 2021)

Legend:
BTK [1] = target: T1, BTK (Homo sapiens (Human), UniProt Q06187); assay: In Vitro BTK Kinase Assay: BTK-POLYGAT-LS ASSAY; type: biochemical; details: fluorescein-labeled polyGAT peptide 100 nM, BTK enzyme 0.25 nM, 30 minutes, TRF
Method: In Vitro BTK Kinase Assay: BTK-POLYGAT-LS ASSAY
The purpose of the BTK in vitro assay is to determine compound potency against BTK through the measurement of IC50. […] For a typical assay, a […] aliquot of a ATP/peptide master mix (final concentration; ATP […], polyGAT 100 nM) in kinase buffer (10 mM Tris-HCl pH 7.5, 10 mM MgCl2, 200 μM Na3PO4, 5 mM DTT, 0.01% Triton X-100, and 0.2 mg/ml casein) is added to each well. […] The assay is incubated for 30 minutes before being stopped with 28 μL of a 50 mM EDTA solution. […] The plate is covered and incubated for 45 minutes at room temperature. Time resolved fluorescence (TRF) on Molecular Devices M5 (332 nm excitation; 488 nm emission; 518 nm fluorescein emission) is measured.

BTK [2] = target: T1, BTK; assay: In Vitro PD Assay in Human Whole Blood (pBTK assay); type: cell-based; details: human heparinized whole blood, 37° C. for 30 min, total BTK capture and phosphotyrosine detection (ECL)
Method: In Vitro PD Assay in Human Whole Blood
Human heparinized venous blood was purchased from Bioreclamation, Inc. or SeraCare Life Sciences and shipped overnight. Whole blood was aliquoted into 96-well plate and “spiked” with serial dilutions of test compound in DMSO or with DMSO without drug. The final concentration of DMSO in all wells was 0.1%. The plate was incubated at 37° C. for 30 min. Lysis buffer containing protease and phosphatase inhibitors was added to the drug-containing samples and one of the DMSO-only samples (+PPi, high control), while lysis buffer containing protease inhibitors was added to the other DMSO-only samples (−PPi, low control). All of the lysed whole blood samples were subjected to the total BTK capture and phosphotyrosine detection method described in US20160311802, incorporated herein by reference.

T1 sequence (Q06187 whole entry): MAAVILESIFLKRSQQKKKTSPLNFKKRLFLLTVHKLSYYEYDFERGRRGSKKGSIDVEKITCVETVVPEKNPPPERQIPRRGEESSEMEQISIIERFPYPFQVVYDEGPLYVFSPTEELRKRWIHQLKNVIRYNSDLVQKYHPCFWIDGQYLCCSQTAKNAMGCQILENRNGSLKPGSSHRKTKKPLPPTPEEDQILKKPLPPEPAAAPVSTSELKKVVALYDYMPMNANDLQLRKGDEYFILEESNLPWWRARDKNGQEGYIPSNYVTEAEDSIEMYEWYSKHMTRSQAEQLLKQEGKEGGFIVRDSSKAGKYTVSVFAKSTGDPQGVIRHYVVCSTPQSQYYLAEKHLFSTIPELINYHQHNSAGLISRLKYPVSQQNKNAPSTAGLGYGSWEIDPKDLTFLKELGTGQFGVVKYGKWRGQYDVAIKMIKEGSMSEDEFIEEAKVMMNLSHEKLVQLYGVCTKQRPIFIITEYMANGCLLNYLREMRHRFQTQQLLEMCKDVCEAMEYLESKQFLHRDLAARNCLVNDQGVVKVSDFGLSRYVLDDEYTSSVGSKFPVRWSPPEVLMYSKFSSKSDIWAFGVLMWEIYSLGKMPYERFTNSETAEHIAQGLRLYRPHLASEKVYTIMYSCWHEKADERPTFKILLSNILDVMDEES

Cn1ccc(Nc2ncnc(-c3ccc(CNC(=O)c4noc(C(C)(C)C)n4)c(Cl)c3)n2)n1 [Compound 5, 5-(tert-butyl)-N-(2-chloro-4-(4-((1-methyl-1H-pyrazol-3-yl)amino)-1,3,5-triazin-2-yl)benzyl)-1,2,4-oxadiazole-3-carboxamide]
IC50 (BTK [1]): 1 to 10 nM | IC50 (BTK [2]): 500 to 10000 nM

Cn1ccc(Nc2ncnc(-c3ccc(CNC(=O)c4nc(C(C)(C)C)no4)c(C4CC4)c3F)n2)n1 [Compound 55, 3-(tert-butyl)-N-(2-cyclopropyl-3-fluoro-4-(4-((1-methyl-1H-pyrazol-3-yl)amino)-1,3,5-triazin-2-yl)benzyl)-1,2,4-oxadiazole-5-carboxamide]
IC50 (BTK [1]): < 1 nM | IC50 (BTK [2]): 500 to 10000 nM

Cc1c([C@@H](C)NC(=O)c2cc(C(C)(C)C)no2)ccc(-c2ncnc(Nc3cnn(C)c3)n2)c1F [Compound 75, (R)-3-(tert-butyl)-N-(1-(3-fluoro-2-methyl-4-(4-((1-methyl-1H-pyrazol-4-yl)amino)-1,3,5-triazin-2-yl)phenyl)ethyl)isoxazole-5-carboxamide]
IC50 (BTK [1]): < 1 nM | IC50 (BTK [2]): 100 to 500 nM

Cc1c([C@@H](C)NC(=O)c2noc(C(C)(C)C)n2)ccc(-c2ncnc(Nc3ccn(C)n3)n2)c1F [Compound 71, (R)-5-(tert-butyl)-N-(1-(3-fluoro-2-methyl-4-(4-((1-methyl-1H-pyrazol-3-yl)amino)-1,3,5-triazin-2-yl)phenyl)ethyl)-1,2,4-oxadiazole-3-carboxamide]
IC50 (BTK [1]): < 1 nM | IC50 (BTK [2]): 100 to 500 nM

Cc1cc(-c2ncnc(Nc3cnn(C)c3)n2)c(F)cc1CNC(=O)c1coc(C(C)(C)C)n1 [Compound 65, 2-(tert-butyl)-N-(5-fluoro-2-methyl-4-(4-((1-methyl-1H-pyrazol-4-yl)amino)-1,3,5-triazin-2-yl)benzyl)oxazole-4-carboxamide]
IC50 (BTK [1]): < 1 nM | IC50 (BTK [2]): 500 to 10000 nM

Cc1c(CNC(=O)c2noc(C(C)(C)C)n2)ccc(-c2ncnc(Nc3cnn(C)c3)n2)c1F [Compound 13, 5-(tert-butyl)-N-(3-fluoro-2-methyl-4-(4-((1-methyl-1H-pyrazol-4-yl)amino)-1,3,5-triazin-2-yl)benzyl)-1,2,4-oxadiazole-3-carboxamide]
IC50 (BTK [1]): < 1 nM | IC50 (BTK [2]): < 100 nM

Cc1c(CNC(=O)c2noc(C3(C(F)(F)F)CC3)n2)ccc(-c2ncnc(Nc3ccn(C)n3)n2)c1F [Compound 52, N-(3-fluoro-2-methyl-4-(4-((1-methyl-1H-pyrazol-3-yl)amino)-1,3,5-triazin-2-yl)benzyl)-5-(1-(trifluoromethyl)cyclopropyl)-1,2,4-oxadiazole-3-carboxamide]
IC50 (BTK [1]): 1 to 10 nM | IC50 (BTK [2]): 500 to 10000 nM

Cn1cc(Nc2ncnc(-c3ccc(CNC(=O)c4nc(C(C)(C)C)no4)c(Cl)c3F)n2)cn1 [Compound 29, 3-(tert-butyl)-N-(2-chloro-3-fluoro-4-(4-((1-methyl-1H-pyrazol-4-yl)amino)-1,3,5-triazin-2-yl)benzyl)-1,2,4-oxadiazole-5-carboxamide]
IC50 (BTK [1]): < 1 nM | IC50 (BTK [2]): < 100 nM

Cc1cc(-c2ncnc(Nc3cnn(C)c3)n2)c(F)cc1CNC(=O)c1nc(C2(CF)CC2)no1 [Compound 60, N-(5-fluoro-2-methyl-4-(4-((1-methyl-1H-pyrazol-4-yl)amino)-1,3,5-triazin-2-yl)benzyl)-3-(1-(fluoromethyl)cyclopropyl)-1,2,4-oxadiazole-5-carboxamide]
IC50 (BTK [1]): < 1 nM | IC50 (BTK [2]): 100 to 500 nM

Cn1cc(Nc2ncnc(-c3ccc4c(c3)CCCC[C@H]4NC(=O)c3nc(C(C)(C)C)no3)n2)cn1 [Compound 34, 3-tert-butyl-N-[(5R)-2-[4-[(1-methylpyrazol-4-yl)amino]-1,3,5-triazin-2-yl]-6,7,8,9-tetrahydro-5H-benzo[7]annulen-5-yl]-1,2,4-oxadiazole-5-carboxamide]
IC50 (BTK [1]): < 1 nM | IC50 (BTK [2]): < 100 nM

Cc1c(CNC(=O)c2nc(C3(CF)CC3)no2)ccc(-c2ncnc(Nc3ccn(C)n3)n2)c1F [Compound 46, N-(3-fluoro-2-methyl-4-(4-((1-methyl-1H-pyrazol-3-yl)amino)-1,3,5-triazin-2-yl)benzyl)-3-(1-(fluoromethyl)cyclopropyl)-1,2,4-oxadiazole-5-carboxamide]
IC50 (BTK [1]): 1 to 10 nM | IC50 (BTK [2]): 500 to 10000 nM

Cc1cc(-c2ncnc(Nc3cnn(C)c3)n2)ccc1CNC(=O)c1nc(C(C)(C)C)co1 [Compound 114, 4-(tert-butyl)-N-(2-methyl-4-(4-((1-methyl-1H-pyrazol-4-yl)amino)-1,3,5-triazin-2-yl)benzyl)oxazole-2-carboxamide]
IC50 (BTK [1]): < 1 nM | IC50 (BTK [2]): 500 to 10000 nM

Cc1cc(-c2ncnc(Nc3ccn(C)n3)n2)ccc1CNC(=O)c1cc(C(C)(C)C)on1 [Compound 42, 5-(tert-butyl)-N-(2-methyl-4-(4-((1-methyl-1H-pyrazol-3-yl)amino)-1,3,5-triazin-2-yl)benzyl)isoxazole-3-carboxamide]
IC50 (BTK [1]): 1 to 10 nM | IC50 (BTK [2]): 500 to 10000 nM

Cn1ccc(Nc2ncnc(-c3ccc4c(c3)CN(CC(F)(F)F)CC[C@H]4NC(=O)c3nc(C(C)(C)C)co3)n2)n1 [Compound 96, (R)-4-(tert-butyl)-N-(8-(4-((1-methyl-1H-pyrazol-3-yl)amino)-1,3,5-triazin-2-yl)-2-(2,2,2-trifluoroethyl)-2,3,4,5-tetrahydro-1H-benzo[c]azepin-5-yl)oxazole-2-carboxamide]
IC50 (BTK [1]): 1 to 10 nM | IC50 (BTK [2]): 500 to 10000 nM

Cc1cc(-c2ncnc(Nc3cnn(C)c3)n2)c(F)cc1CNC(=O)c1noc(C(C)(C)C)n1 [Compound 56, 5-(tert-butyl)-N-(5-fluoro-2-methyl-4-(4-((1-methyl-1H-pyrazol-4-yl)amino)-1,3,5-triazin-2-yl)benzyl)-1,2,4-oxadiazole-3-carboxamide]
IC50 (BTK [1]): < 1 nM | IC50 (BTK [2]): 100 to 500 nM

Cn1ccc(Nc2ncnc(-c3cc4c(cc3F)[C@H](NC(=O)c3nc(C(C)(C)C)no3)CCCC4)n2)n1 [Compound 85, (R)-3-(tert-butyl)-N-(3-fluoro-2-(4-((1-methyl-1H-pyrazol-3-yl)amino)-1,3,5-triazin-2-yl)-6,7,8,9-tetrahydro-5H-benzo[7]annulen-5-yl)-1,2,4-oxadiazole-5-carboxamide]
IC50 (BTK [1]): < 1 nM | IC50 (BTK [2]): < 100 nM

Cc1c(CNC(=O)c2ccn(C(C)(C)C)n2)ccc(-c2ncnc(Nc3cnn(C)c3)n2)c1F [Compound 106, 1-(tert-butyl)-N-(3-fluoro-2-methyl-4-(4-((1-methyl-1H-pyrazol-4-yl)amino)-1,3,5-triazin-2-yl)benzyl)-1H-pyrazole-3-carboxamide]
IC50 (BTK [1]): < 1 nM | IC50 (BTK [2]): 500 to 10000 nM

Cc1cc(-c2ncnc(Nc3cnn(C)c3)n2)ccc1CNC(=O)c1noc(C(C)(C)C)n1 [Compound 11, 5-(tert-butyl)-N-(2-methyl-4-(4-((1-methyl-1H-pyrazol-4-yl)amino)-1,3,5-triazin-2-yl)benzyl)-1,2,4-oxadiazole-3-carboxamide]
IC50 (BTK [1]): < 1 nM | IC50 (BTK [2]): 100 to 500 nM

Cn1ccc(Nc2ncnc(-c3ccc(CNC(=O)c4noc(C5(C)CC5)n4)c(Cl)c3F)n2)n1 [Compound 104, N-(2-chloro-3-fluoro-4-(4-((1-methyl-1H-pyrazol-3-yl)amino)-1,3,5-triazin-2-yl)benzyl)-5-(1-methylcyclopropyl)-1,2,4-oxadiazole-3-carboxamide]
IC50 (BTK [1]): < 1 nM | IC50 (BTK [2]): 500 to 10000 nM
